Measured values as given in patent publication US8278074B2, “L-glutamic acid-producing microorganism and a method for producing L-glutamic acid” (priority 2004, dated 2012).

Columns and labels:
Type in all cases: cell-based, Corynebacterium glutamicum
[1] = tested on: mutant-type yggB gene-introduced strains (ATCC13869-L30 strain, ATCC13869-A1 strain); assay: Resistance to 4-fluoroglutamic acid on a solid medium; settings: minimum plate medium, 7.5 mM 4-fluoroglutamic acid, 31.5° C., compared with wild-type ATCC13869 strain (FIG. 6)
Description: 4-fluoroglutamic acid solution which was adjusted to pH6.7 with NaOH and sterilized with filtration was added to the minimum medium described in Example 4 so that the final concentration of 4-fluoroglutamic acid was 7.5 mM. Each of the ATCC13869 strain, ATCC13869-L30 strain, and ATCC13869-A1 strain was spread over the CM-Dex plate and cultured overnight.

ATCC13869-A1 strain = assay: Resistance to 4-fluoroglutamic acid in a liquid medium; settings: minimum liquid medium, 1.25 mM to 20 mM 4-fluoroglutamic acid, 31.5° C., culture without 4-fluoroglutamic acid set to 1 (FIG. 7)
Description: (§1) 4-fluoroglutamic acid was added into the minimum liquid medium having the same composition as described in Example 4 but not containing agar to the final concentration of 1.25 mM, 2.5 mM, 5 mM, 10 mM, and 20 mM, respectively. Each of the ATCC13869 strain, ATCC13869ΔyggB strain, ATCC13869-L30 strain, and ATCC13869-A1 strain was spread over a CM-Dex plate and cultured at 31.5° C. overnight. Then, cells were collected, and after washing with the sterilized 0.85% NaCl solution, inoculated into the liquid medium and cultured at 31.5° C. with shaking. When the OD660 of each strain cultured without 4-fluoroglutamic acid reached 1.0, the culture was terminated and the obtained culture solution was diluted appropriately and spread over the CM-Dex plate overnight. The number of colonies which appeared were calculated and designated as a viable cell number.

ATCC13869-L30 strain = assay: as above; settings: minimum liquid medium, 1.25 mM to 20 mM 4-fluoroglutamic acid, 31.5° C., culture without 4-fluoroglutamic acid set to 1 (FIG. 7)
Description: as §1

Compound: N[C@@H](CC(F)C(=O)O)C(=O)O (stereo partly drawn) [4-fluoroglutamic acid]
- growth in the presence of 4-fluoroglutamic acid [1]: grow faster than wild-type ATCC13869 strain
- sensitivity to 4-fluoroglutamic acid (relative viable cell number) (ATCC13869-A1 strain): decreased sensitivity
- sensitivity to 4-fluoroglutamic acid (relative viable cell number) (ATCC13869-L30 strain): decreased sensitivity
